≈ marks a conversion by molar mass, not a printed value.
Key:
[1] = system: MOLT-4; test: Growth inhibition of human MOLT4 cells assessed as cell growth at 10^-5 M incubated for 48 hrs by sulforhodamine B assay relative to control; assay type: cell-based; design: scale not given: the % may be the effect or the level left; details: molt-4, 48 h, 10 µM
[2] = system: COLO 205; test: Growth inhibition of human COLO205 cells assessed as cell growth at 10^-5 M incubated for 48 hrs by sulforhodamine B assay relative to control; assay type: cell-based; design: scale not given: the % may be the effect or the level left; details: colo 205, 48 h, 10 µM
[3] = Stability in mouse RAW264.7 cells measured after 48 hrs; assay type: ADME, cell-based; details: raw264.7, 48 h
[4] = system: Candida albicans; test: Antifungal activity against Candida albicans RCMB 05036 after 24 hrs by serial dilution method; assay type: functional; details: RCMB 05036, 24 h
[5] = system: Mycobacterium tuberculosis; test: Potency index, ratio of isoniazid MIC to compound MIC for antitubercular activity against Mycobacterium tuberculosis RCMB 010126 clinical isolate; assay type: functional
[6] = system: PC-3; test: Growth inhibition of human PC3 cells assessed as cell growth at 10^-5 M incubated for 48 hrs by sulforhodamine B assay relative to control; assay type: cell-based; design: scale not given: the % may be the effect or the level left; details: pc-3, 48 h, 10 µM
[7] = system: OVCAR-3; test: Growth inhibition of human OVCAR3 cells assessed as cell growth at 10^-5 M incubated for 48 hrs by sulforhodamine B assay relative to control; assay type: cell-based; design: scale not given: the % may be the effect or the level left; details: ovcar-3, 48 h, 10 µM
[8] = system: Malme-3M; test: Growth inhibition of human MALME-3M cells assessed as cell growth at 10^-5 M incubated for 48 hrs by sulforhodamine B assay relative to control; assay type: cell-based; design: scale not given: the % may be the effect or the level left; details: 10 µM
[9] = system: Staphylococcus aureus; test: Potency index, ratio of ciprofloxacin MIC to compound MIC for Staphylococcus aureus RCMB 010028; assay type: functional
[10] = system: Staphylococcus aureus; test: Antibacterial activity against Staphylococcus aureus RCMB 010028 assessed as diameter of zone inhibition after 24 hrs by agar well diffusion assay; assay type: functional
[11] = system: HOP-62; test: Growth inhibition of human HOP62 cells assessed as cell growth at 10^-5 M incubated for 48 hrs by sulforhodamine B assay relative to control; assay type: cell-based; design: scale not given: the % may be the effect or the level left; details: hop-62, 48 h, 10 µM
[12] = system: SK-MEL-28; test: Growth inhibition of human SK-MEL-28 cells assessed as cell growth at 10^-5 M incubated for 48 hrs by sulforhodamine B assay relative to control; assay type: cell-based; design: scale not given: the % may be the effect or the level left; details: sk-mel-28, 48 h, 10 µM
[13] = system: ACHN; test: Growth inhibition of human ACHN cells assessed as cell growth at 10^-5 M incubated for 48 hrs by sulforhodamine B assay relative to control; assay type: cell-based; design: scale not given: the % may be the effect or the level left; details: 10 µM
[14] = system: Escherichia coli; test: Antibacterial activity against Escherichia coli RCMB 010052 assessed as diameter of zone inhibition after 24 hrs by agar well diffusion assay; assay type: functional
[15] = system: Pseudomonas aeruginosa; test: Potency index, ratio of ciprofloxacin MIC to compound MIC for Pseudomonas aeruginosa RCMB 010043; assay type: functional
[16] = system: KM12; test: Growth inhibition of human KM12 cells assessed as cell growth at 10^-5 M incubated for 48 hrs by sulforhodamine B assay relative to control; assay type: cell-based; design: scale not given: the % may be the effect or the level left; details: km12, 48 h, 10 µM
[17] = system: DU-145; test: Growth inhibition of human DU145 cells assessed as cell growth at 10^-5 M incubated for 48 hrs by sulforhodamine B assay relative to control; assay type: cell-based; design: scale not given: the % may be the effect or the level left; details: du-145, 48 h, 10 µM
[18] = system: RXF 393; test: Growth inhibition of human RXF393 cells assessed as cell growth at 10^-5 M incubated for 48 hrs by sulforhodamine B assay relative to control; assay type: cell-based; design: scale not given: the % may be the effect or the level left; details: rxf 393, 48 h, 10 µM
[19] = system: SK-MEL-2; test: Growth inhibition of human SK-MEL-2 cells assessed as cell growth at 10^-5 M incubated for 48 hrs by sulforhodamine B assay relative to control; assay type: cell-based; design: scale not given: the % may be the effect or the level left; details: sk-mel-2, 48 h, 10 µM
[20] = Selectivity index, ratio of GI50 for mouse RAW264.7 cells to MIC for Mycobacterium aurum infected in mouse RAW264.7 cells; assay type: toxicity, cell-based; details: read-out: Selectivity Index
[21] = system: MDA-MB-435; test: Growth inhibition of human MDA-MB-435 cells assessed as cell growth at 10^-5 M incubated for 48 hrs by sulforhodamine B assay relative to control; assay type: cell-based; design: scale not given: the % may be the effect or the level left; details: mda-mb-435, 48 h, 10 µM
[22] = system: HCT-15; test: Growth inhibition of human HCT15 cells assessed as cell growth at 10^-5 M incubated for 48 hrs by sulforhodamine B assay relative to control; assay type: cell-based; design: scale not given: the % may be the effect or the level left; details: hct-15, 48 h, 10 µM
[23] = system: MCF7; test: Growth inhibition of human MCF7 cells assessed as cell growth at 10^-5 M incubated for 48 hrs by sulforhodamine B assay relative to control; assay type: cell-based; design: scale not given: the % may be the effect or the level left; details: mcf7, 48 h, 10 µM
[24] = system: M14; test: Growth inhibition of human M14 cells assessed as cell growth at 10^-5 M incubated for 48 hrs by sulforhodamine B assay relative to control; assay type: cell-based; design: scale not given: the % may be the effect or the level left; details: m14, 48 h, 10 µM
[25] = system: Escherichia coli; test: Antibacterial activity against Escherichia coli RCMB 010052 after 24 hrs by serial dilution method; assay type: functional; details: RCMB 010052, 24 h
[26] = system: HOP-92; test: Growth inhibition of human HOP92 cells assessed as cell growth at 10^-5 M incubated for 48 hrs by sulforhodamine B assay relative to control; assay type: cell-based; design: scale not given: the % may be the effect or the level left; details: hop-92, 48 h, 10 µM
[27] = system: SK-MEL-5; test: Growth inhibition of human SK-MEL-5 cells assessed as cell growth at 10^-5 M incubated for 48 hrs by sulforhodamine B assay relative to control; assay type: cell-based; design: scale not given: the % may be the effect or the level left; details: sk-mel-5, 48 h, 10 µM
[28] = system: NCI-H322M; test: Growth inhibition of human NCI-H322M cells assessed as cell growth at 10^-5 M incubated for 48 hrs by sulforhodamine B assay relative to control; assay type: cell-based; design: scale not given: the % may be the effect or the level left; details: 10 µM
[29] = system: WI-38; test: Cytotoxicity against human WI38 cells by MTT assay; assay type: cell-based
[30] = system: IGROV-1; test: Growth inhibition of human IGROV1 cells assessed as cell growth at 10^-5 M incubated for 48 hrs by sulforhodamine B assay relative to control; assay type: cell-based; design: scale not given: the % may be the effect or the level left; details: igrov-1, 48 h, 10 µM
[31] = system: OVCAR-8; test: Growth inhibition of human OVCAR8 cells assessed as cell growth at 10^-5 M incubated for 48 hrs by sulforhodamine B assay relative to control; assay type: cell-based; design: scale not given: the % may be the effect or the level left; details: ovcar-8, 48 h, 10 µM
[32] = system: OVCAR-5; test: Growth inhibition of human OVCAR5 cells assessed as cell growth at 10^-5 M incubated for 48 hrs by sulforhodamine B assay relative to control; assay type: cell-based; design: scale not given: the % may be the effect or the level left; details: ovcar-5, 48 h, 10 µM
[33] = system: NCI-H226; test: Growth inhibition of human NCI-H226 cells assessed as cell growth at 10^-5 M incubated for 48 hrs by sulforhodamine B assay relative to control; assay type: cell-based; design: scale not given: the % may be the effect or the level left; details: nci-h226, 48 h, 10 µM
[34] = system: RPMI-8226; test: Growth inhibition of human RPMI8226 cells assessed as cell growth at 10^-5 M incubated for 48 hrs by sulforhodamine B assay relative to control; assay type: cell-based; design: scale not given: the % may be the effect or the level left; details: rpmi-8226, 48 h, 10 µM
[35] = system: UACC-257; test: Growth inhibition of human UACC257 cells assessed as cell growth at 10^-5 M incubated for 48 hrs by sulforhodamine B assay relative to control; assay type: cell-based; design: scale not given: the % may be the effect or the level left; details: uacc-257, 48 h, 10 µM
[36] = system: NCI-H23; test: Growth inhibition of human NCI-H23 cells assessed as cell growth at 10^-5 M incubated for 48 hrs by sulforhodamine B assay relative to control; assay type: cell-based; design: scale not given: the % may be the effect or the level left; details: nci-h23, 48 h, 10 µM

Compound	Activity [1] [%]	Activity [2] [%]	Stability [3]	MIC [4] [µg/mL]	Ratio [5]	Activity [6] [%]	Activity [7] [%]	Activity [8] [%]	Ratio [9]	diameter of the inhibition zone (DIZ) [10] [mm]	Activity [11] [%]	Activity [12] [%]	Activity [13] [%]	diameter of the inhibition zone (DIZ) [14] [mm]	Ratio [15]	Activity [16] [%]	Activity [17] [%]	Activity [18] [%]	Activity [19] [%]	selectivity ratio [20]	other results
CC(=O)c1sc(/N=C2\NC(=O)/C(=C3/C(=O)N(C)c4ccc(Cl)cc43)S2)nc1C	105.36	108.28	Stable	0.49 (≈ 1.13 µM)	2	96.23	96.17	85.96	2	22.4	116.23	99.13	104.32	25.1	4	94.43	100.78	106.08	99.78	5	Activity [21]: 101.04%; Activity [22]: 101.97%; Activity [23]: 86.13%; Activity [24]: 100.08%; MIC [25]: 0.49 µg/mL (≈ 1.13 µM); Activity [26]: 95.24%; Activity [27]: 97.1%; Activity [28]: 96.29%; IC50 [29]: 19.5 µg/mL (≈ 45 µM); Activity [30]: 94.36%; Activity [31]: 117.64%; Activity [32]: 104.59%; Activity [33]: 94.2%; Activity [34]: 110.22%; Activity [35]: 114.2%; Activity [36]: 96.3%
CCOC(=O)c1sc(/N=C2\NC(=O)/C(=C3/C(=O)N(Cc4ccccc4)c4ccc(Cl)cc43)S2)nc1C	97.7	101.47	Stable	1.95 (≈ 3.62 µM)	2	91.84	105.46	102.79	2	22.5	98.01	113.38	110.67	23.4	2	101.95	104.75	105.33	100.66	1.25	Activity [21]: 107.3%; Activity [22]: 100.31%; Activity [23]: 97.06%; Activity [24]: 98.8%; MIC [25]: 0.98 µg/mL (≈ 1.82 µM); Activity [26]: 92.11%; Activity [27]: 101.5%; Activity [28]: 111.22%; IC50 [29]: 52.1 µg/mL (≈ 96.7 µM); Activity [30]: 105.63%; Activity [31]: 103.48%; Activity [32]: 112.65%; Activity [33]: 94.7%; Activity [34]: 99.02%; Activity [35]: 106.14%; Activity [36]: 96.32%

Source: ChEMBL document CHEMBL4308854, “Novel indole-thiazolidinone conjugates: Design, synthesis and whole-cell phenotypic evaluation as a novel class of antimicrobial agents” (Eur J Med Chem, 2018)
